Biological target: MAPK14 (UniProt Q16539)
Experiment: Inhibition of MAPK14 Kinase Activity

Sequence of MAPK14 (Q16539 whole entry, looked up): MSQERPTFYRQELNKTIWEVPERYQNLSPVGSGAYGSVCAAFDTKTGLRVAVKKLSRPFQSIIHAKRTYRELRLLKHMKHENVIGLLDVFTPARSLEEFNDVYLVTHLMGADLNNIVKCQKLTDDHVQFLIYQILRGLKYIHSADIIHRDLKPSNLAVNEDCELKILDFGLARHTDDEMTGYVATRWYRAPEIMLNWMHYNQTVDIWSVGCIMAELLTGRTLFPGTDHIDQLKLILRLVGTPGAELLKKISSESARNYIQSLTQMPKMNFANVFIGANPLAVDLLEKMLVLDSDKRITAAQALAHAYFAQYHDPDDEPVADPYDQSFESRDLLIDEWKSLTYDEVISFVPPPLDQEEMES

SMILES: COCOc1cc(C(=O)NCC(C)C)ccc1-c1cc(C(=O)NC2CC2)cc(F)c1C
- IC50: < 10 µM

SMILES: Cc1ccc(C(=O)NC2CC2)cc1-c1ccc(C(=O)NCC(C)(C)C)cc1OCCCN1CCCC1
- IC50: < 10 µM

SMILES: COCOc1cc(C(=O)N[C@H](C)C(C)(C)C)ccc1-c1cc(C(=O)NC2CC2)cc(F)c1C
- IC50: < 10 µM

SMILES: COCOc1cc(C(=O)N[C@H](C)C(C)C)ccc1-c1cc(C(=O)NC2CC2)cc(F)c1C
- IC50: < 10 µM

SMILES: COCOc1cc(C(=O)NCc2ccc(OC)cc2)ccc1-c1cc(C(=O)NC2CC2)cc(F)c1C
- IC50: < 10 µM

SMILES: Cc1c(F)cc(C(=O)NC2CC2)cc1-c1ccc(C(=O)NCC(C)(C)C)cc1CO
- IC50: < 10 µM

SMILES: Cc1c(F)cc(C(=O)NC2CC2)cc1-c1ccc(C(=O)NCC(C)(C)C)cc1OCCCc1nnco1
- IC50: < 10 µM

SMILES: Cc1c(F)cc(C(=O)NC2CC2)cc1-c1ccc(C(=O)NCC(C)(C)C)cc1OCCCC(=O)O
- IC50: < 10 µM

SMILES: Cc1c(F)cc(C(=O)NC2CC2)cc1-c1ccc(C(=O)NCC(C)(C)C)cc1OCCCC(=O)N1CCOCC1
- IC50: < 10 µM

SMILES: COc1cc(C(=O)NCC2CC2)ccc1-c1cc(C(=O)NC2CC2)cc(F)c1C
- IC50: < 10 µM

SMILES: COCOc1cc(C(=O)NCC(C)(C)C)ccc1-c1cc(C(=O)NC2CC2)cc(F)c1C
- IC50: < 10 µM

SMILES: COCOc1cc(C(=O)NCC2CC2)ccc1-c1cc(C(=O)NC2CC2)cc(F)c1C
- IC50: < 10 µM

SMILES: CCNC(=O)Nc1cc(C(=O)NCC(C)(C)C)ccc1-c1cc(C(=O)NC2CC2)ccc1C
- IC50: < 10 µM

SMILES: Cc1ccc(C(=O)NC2CC2)cc1-c1ccc(C(=O)NCC(C)(C)C)cc1NS(C)(=O)=O
- IC50: < 10 µM

SMILES: Cc1ccc(C(=O)NC2CC2)cc1-c1ccc(C(=O)NCC(C)(C)C)cc1OCCCN(C)C(C)C
- IC50: < 10 µM

SMILES: COc1cc(C(=O)N[C@H](C)C(C)C)ccc1-c1cc(C(=O)NC2CC2)cc(F)c1C
- IC50: < 10 µM

SMILES: CNC(=O)CCCOc1cc(C(=O)NCC(C)(C)C)ccc1-c1cc(C(=O)NC2CC2)cc(F)c1C
- IC50: < 10 µM

SMILES: Cc1c(F)cc(C(=O)NC2CC2)cc1-c1ccc(C(=O)NCC(C)(C)C)cc1OCCCN(C)C
- IC50: < 10 µM

SMILES: CCCOc1cc(C(=O)NCC(C)(C)C)ccc1-c1cc(C(=O)NC2CC2)cc(F)c1C
- IC50: < 10 µM

SMILES: COc1ccc(CNC(=O)c2ccc(-c3cc(C(=O)NC4CC4)cc(F)c3C)c(OC)c2)cc1
- IC50: < 10 µM

SMILES: CCNC(=O)CCCOc1cc(C(=O)NCC(C)(C)C)ccc1-c1cc(C(=O)NC2CC2)cc(F)c1C
- IC50: < 10 µM

SMILES: Cc1ccc(CNC(=O)c2ccc(-c3cc(C(=O)NC4CC4)cc(F)c3C)c(O)c2)cc1
- IC50: < 10 µM

SMILES: COc1ccc(CNC(=O)c2ccc(-c3cc(C(=O)NC4CC4)cc(F)c3C)c(O)c2)cc1
- IC50: < 10 µM

SMILES: Cc1c(F)cc(C(=O)NC2CC2)cc1-c1ccc(C(=O)NCC(C)C)cc1O
- IC50: < 10 µM

SMILES: CCN(CC)CCCOc1cc(C(=O)NCC(C)(C)C)ccc1-c1cc(C(=O)NC2CC2)ccc1C
- IC50: < 10 µM

SMILES: Cc1c(F)cc(C(=O)NC2CC2)cc1-c1ccc(C(=O)N[C@H](C)C(C)(C)C)cc1O
- IC50: < 10 µM

SMILES: CC(=O)Nc1cc(C(=O)NCC(C)(C)C)ccc1-c1cc(C(=O)NC2CC2)ccc1C
- IC50: < 10 µM

SMILES: Cc1c(F)cc(C(=O)NC2CC2)cc1-c1ccc(C(=O)N[C@H](C)C(C)C)cc1O
- IC50: < 10 µM

SMILES: COc1cc(C(=O)N[C@H](C)C(C)(C)C)ccc1-c1cc(C(=O)NC2CC2)cc(F)c1C
- IC50: < 10 µM

SMILES: COc1cc(C(=O)NCC(C)C)ccc1-c1cc(C(=O)NC2CC2)cc(F)c1C
- IC50: < 10 µM

SMILES: Cc1c(F)cc(C(=O)NC2CC2)cc1-c1ccc(C(=O)NCC(C)(C)C)cc1OCCCC(=O)N1CCCC1
- IC50: < 10 µM

SMILES: Cc1c(F)cc(C(=O)NC2CC2)cc1-c1ccc(C(=O)NCC2CC2)cc1OCCN(C)C
- IC50: < 10 µM

SMILES: Cc1ccc(C(=O)NC2CC2)cc1-c1ccc(C(=O)NCC(C)(C)C)cc1OCC(O)CO (stereo not drawn)
- IC50: < 10 µM

SMILES: Cc1c(F)cc(C(=O)NC2CC2)cc1-c1ccc(C(=O)NCC2CC2)cc1O
- IC50: < 10 µM

SMILES: Cc1c(F)cc(C(=O)NC2CC2)cc1-c1ccc(C(=O)NCC(C)(C)C)cc1OCCNS(C)(=O)=O
- IC50: < 10 µM

SMILES: Cc1c(F)cc(C(=O)NC2CC2)cc1-c1ccc(C(=O)NCC(C)(C)C)cc1OCCCCO
- IC50: < 10 µM

SMILES: Cc1ccc(C(=O)NC2CC2)cc1-c1ccc(C(=O)NCC(C)(C)C)cc1N
- IC50: < 10 µM

SMILES: Cc1c(F)cc(C(=O)NC2CC2)cc1-c1ccc(C(=O)NCC(C)(C)C)cc1CNCC(C)(C)C
- IC50: < 10 µM

SMILES: Cc1c(F)cc(C(=O)NC2CC2)cc1-c1ccc(C(=O)NCC(C)(C)C)cc1OCCCC(N)=O
- IC50: < 10 µM

SMILES: CCC(=O)Nc1cc(C(=O)NCC(C)(C)C)ccc1-c1cc(C(=O)NC2CC2)ccc1C
- IC50: < 10 µM

SMILES: Cc1ccc(C(=O)NC2CC2)cc1-c1ccc(C(=O)NCC(C)(C)C)cc1OCCCNCCO
- IC50: < 10 µM

SMILES: Cc1c(F)cc(C(=O)NC2CC2)cc1-c1ccc(C(=O)NCC(C)(C)C)cc1O
- IC50: < 10 µM

SMILES: Cc1ccc(C(=O)NC2CC2)cc1-c1ccc(C(=O)NCC(C)(C)C)cc1OCCCNC(C)C
- IC50: < 10 µM

SMILES: Cc1c(F)cc(C(=O)NC2CC2)cc1-c1ccc(C(=O)NCC(C)(C)C)cc1OCC(=O)N1CCOCC1
- IC50: < 10 µM

SMILES: Cc1c(F)cc(C(=O)NC2CC2)cc1-c1ccc(C(=O)NCC(C)(C)C)cc1OCCCC(=O)N(C)C
- IC50: < 10 µM

SMILES: Cc1ccc(C(=O)NC2CC2)cc1-c1ccc(C(=O)NCC(C)(C)C)cc1OCCCN1CCOCC1
- IC50: < 10 µM

SMILES: COc1cc(C(=O)NCC(C)(C)C)ccc1-c1cc(C(=O)NC2CC2)cc(F)c1C
- IC50: < 10 µM

SMILES: Cc1c(F)cc(C(=O)NC2CC2)cc1-c1ccc(C(=O)NCC(C)(C)C)cc1OCCN1CCOCC1
- IC50: < 10 µM
